Experimental data: patent US20240409536A1, “COMPOUNDS AND METHODS FOR MODULATING SPLICING” (REMIX THERAPEUTICS INC., priority 2021, published 2024)
Structures can show the parent of a compound that is named as a salt.

Tests used:
HiBiT-tagged MYB protein = test: HiBiT protein abundance assay, MYB (K562 HiBiT knock-in cells); assay type: cell-based, human; details: 24 hours
Method: (§1) Compounds described herein were used to screen for effects on quantitative protein abundance using a HiBit assay system (Promega). Quantitative protein abundance was determined by measuring the protein levels of HiBit-tagged protein targets expressed in cell culture via luminescence using the Nano-Glo HiBiT Lytic Detection System, which uses a split complementation assay format to reconstitute NanoBiT enzyme to generate a luminescent signal. A protein abundance assay was developed such that endogenous protein targets could be modified with the HiBiT peptide tag and their abundance could be assessed after compound treatment. Briefly, K562 cell lines containing a HiBiT-modification were treated with various compounds described herein (e.g., compounds of Formulas (I), (II), or (III)). After treatment for 24 hours, the protein abundance of a specific target was determined by measuring luminescence.
(§2) • Promega Nano-Glo HiBiT Lytic Detection System (cat #N3030) • Corning 384-well TC-treated microplates (cat #3570) • Synthego Engineered Cells Knock-In Clones
(§3) Cells were maintained in IMDM with 10% FBS. Before the assay, cells were diluted with […] growth media (IMDM+1% FBS media) and were seeded in a 384-well plate at a density of 10000 cells/well (for each cell line listed in Table 6). Each compound was prepared as a 10-point 3-fold serial dilution in DMSO with the top dose at a final concentration of 10 μM in the well. Unmodified K562 cells were added at the previously specified density with DMSO to serve as an assay baseline and positive control (PC) and DMSO only with the respective modified cell lines was added to the negative control (NC) columns. Final DMSO concentration was kept at or below 0.25%. Treated cell plates were placed in an incubator at 37° C. with 5% CO2 for 24 hours. After 24 hours, 25 μL of Complete HiBit Lytic reagent was added to each well at room temperature (e.g. one plate requiring 10 mL Lytic Buffer, 100 μL LgBiT Protein, 200 μL Lytic Substrate), shaken for 5 minutes at 600 RPM, then left to sit for 10 minutes for signal to stabilize before reading on a Spark Cyto plate reader (Tecan) with a 500 ms measurement time.
(§4) To determine compound effects on protein abundance of each target in Table 6, the percent response for each respective cell line was calculated at each compound concentration as follows:
(§5) For the normalized response at each concentration, a four-parameter logistical regression was fit to the data and the response was interpolated at the 50% value to determine a concentration for protein abundance at 50% (IC50) the untreated control.

HiBiT-tagged HTT protein = test: HiBiT protein abundance assay, HTT (K562 HiBiT knock-in cells); assay type: cell-based, human; details: 24 hours
Method: as §1, §2, §3, §4, §5

Target C = test: HiBiT protein abundance assay, Target C (K562 HiBiT knock-in cells); assay type: cell-based, human; details: 24 hours
Method: as §2, §3, §4, §5

K562 cells = test: Cell Titer Glo 2.0 cell viability assay in K562 cells; details: 72 hours
Method: Compounds described herein were screened for toxicity in K562 (human chronic myelogenous leukemia) and SH-SY5Y (human neuroblastoma) cells using a Cell Titer Glo 2.0 assay.
Cells were plated at 500 cells/well (K562 cells) in 45 μL of IMDM supplemented with 10% FBS in a 384-well opaque plate. Wells containing only medium were used as a blank control. Test compounds (e.g., compounds of Formula (I), (II), or (III)) were first serially diluted in DMSO then diluted 1:100 with IMDM+10% FBS. The final concentration of DMSO was 0.1% in each well. The cells were incubated for 72 hours at 37° C. and 5% CO2 before assaying with Cell Titer Glo 2.0 reagent.

HTT mRNA [1] = test: Splicing RT-qPCR assay, HTT canonical (CJ) and alternative (AJ) junction mRNA; assay type: cell-based; details: Homo sapiens, A673 or K562 cells, 24 hours; for IC50: decrease in canonical junction mRNA; for AC50: increase in alternative junction mRNA
In short: (§6)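 A673 (DMEM/10% FBS, plated 24 h before dosing) or K562 (IMDM/10% FBS) cells treated 24 h at 37 °C with 11-point 3-fold dilutions, top final 10 uM, DMSO ≤0.25%. Lysates analysed by one-step RT-qPCR for CJ and AJ isoforms, normalized to GAPDH/GUSB (K562) or PPIA (A673).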

MYB mRNA [2] = test: Splicing RT-qPCR assay, MYB canonical (CJ) and alternative (AJ) junction mRNA; assay type: cell-based; details: Homo sapiens, A673 or K562 cells, 24 hours; for IC50: decrease in canonical junction mRNA; for AC50: increase in alternative junction mRNA
In short: as §6

HTT mRNA [3] = test: Gene panel canonical junction qPCR assay, HTT CJ mRNA decrease; assay type: cell-based, human; details: Homo sapiens, canonical junction qPCR, read-out: HTT IC50 (decrease in CJ mRNA levels)
In short: (§7)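 A673 or K562 cells treated with compound; canonical exon-exon junction mRNA quantified by cDNA synthesis and RT-qPCR with junction-spanning primer/probe, normalized to GAPDH, GUSB or PPIA and DMSO (2^(−ΔΔCt)). Percent response from set ΔCt assay windows fitted to 4-parameter logistic; IC50 for CJ decrease.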

MYB mRNA [4] = test: Gene panel canonical junction qPCR assay, MYB CJ mRNA decrease; assay type: cell-based, human; details: Homo sapiens, canonical junction qPCR, read-out: MYB IC50 (decrease in CJ mRNA levels)
In short: as §7

SMN2 mRNA = test: Gene panel canonical junction qPCR assay, SMN2 CJ mRNA decrease; assay type: cell-based, human; details: Homo sapiens, canonical junction qPCR, read-out: SMN2 IC50 (decrease in CJ mRNA levels)
In short: as §7

Target C mRNA = test: Gene panel canonical junction qPCR assay, Target C CJ mRNA decrease; assay type: cell-based; details: Homo sapiens, canonical junction qPCR, read-out: Target C IC50 (decrease in CJ mRNA levels)
In short: as §7

| Compound | IC50 (HiBiT-tagged MYB protein) [nM] | IC50 (HiBiT-tagged HTT protein) [nM] | IC50 (Target C) [nM] | Viability (K562 cells) | IC50 (HTT mRNA [1]) [µM] | AC50 (HTT mRNA [1]) [µM] | IC50 (MYB mRNA [2]) [nM] | AC50 (MYB mRNA [2]) [nM] | IC50 (HTT mRNA [3]) [µM] | IC50 (MYB mRNA [4]) [nM] | IC50 (SMN2 mRNA) [nM] | IC50 (Target C mRNA) [µM] |
| --- | --- | --- | --- | --- | --- | --- | --- | --- | --- | --- | --- | --- |
| Cc1cn2cc(NC(=O)c3ccc(N4CCNCC4)c4ccnnc34)cc(F)c2n1 [Compound 101] | < 100 | 100 to 1000 | 100 to 1000 | B (B represents 100-1000 nM) |  |  |  |  |  |  |  |  |
| Cc1cn2cc(NC(=O)c3ccc(C4CCNCC4)c4ccnnc34)cc(F)c2n1 [Compound 103] | < 100 | 100 to 1000 | 1000 to 10000 | A (A represents <100 nM) |  |  |  |  |  |  |  |  |
| Cc1cn2cc(NC(=O)c3ccc(N4CCNCC4)c4cncnc34)cc(F)c2n1 [Compound 112] | < 100 | 100 to 1000 | 1000 to 10000 | B (B represents 100-1000 nM) |  |  |  |  |  |  |  |  |
| Cc1nc2c(F)cc(NC(=O)c3ccc(N4CCNCC4)c4ccnnc34)cc2o1 [Compound 117] | < 100 | 100 to 1000 | 1000 to 10000 | B (B represents 100-1000 nM) |  |  |  |  |  |  |  |  |
| Cc1cn2nc(NC(=O)c3ccc(N4CCNCC4)c4ccnnc34)nc2c(C)n1 [Compound 122] | 1000 to 10000 | 1000 to 10000 | 1000 to 10000 | C (C represents 1000-9999 nM) |  |  |  |  |  |  |  |  |
| Cc1cn2cc(NC(=O)c3ccc(N4CCNCC4)c4ccnnc34)cc(Cl)c2n1 [Compound 124] | < 100 | 1000 to 10000 | 1000 to 10000 | B (B represents 100-1000 nM) |  |  |  |  |  |  |  |  |
| CCNC1CCN(c2ccc(C(=O)Nc3cc(F)c4nc(C)cn4c3)c3nnccc23)CC1 [Compound 139, 5-[4-(ethylamino)piperidin-1-yl]-N-{8-fluoro-2-methylimidazo[1,2-a]pyridin-6-yl}cinnoline-8-carboxamide] | < 100 | 100 to 1000 | 1000 to 10000 | A (A represents <100 nM) |  |  |  |  |  |  |  |  |
| Cc1cn2cc(NC(=O)c3ccc(N4CCNC(C)C4)c4nccnc34)cc(F)c2n1 (centres unmarked) [Compound 157] | < 100 | 1000 to 10000 | 1000 to 10000 | A (A represents <100 nM) |  |  |  |  |  |  |  |  |
| Cc1cn2cc(NC(=O)c3ccc(N4CCC(N(C)C)CC4)c4nccnc34)cc(F)c2n1 [Compound 158, 8-(4-(dimethylamino)piperidin-1-yl)-N-(8-fluoro-2-methylimidazo[1,2-a]pyridin-6-yl)quinoxaline-5-carboxamide] | 100 to 1000 | 100 to 1000 | 1000 to 10000 | B (B represents 100-1000 nM) |  |  |  |  |  |  |  |  |
| Cc1cn2cc(NC(=O)c3ccc(N4CCC5(CCN5)CC4)c4ccnnc34)cc(F)c2n1 [Compound 171, 5-{1,7-diazaspiro[3.5]nonan-7-yl}-N-{8-fluoro-2-methylimidazo[1,2-a]pyridin-6-yl}cinnoline-8-carboxamide trifluoroacetate] | < 100 | 100 to 1000 | 1000 to 10000 | B (B represents 100-1000 nM) |  |  |  |  |  |  |  |  |
| Cc1cn2cc(NC(=O)c3ccc(N4CCN[C@H](C)C4)c4nccnc34)cc(F)c2n1 [Compound 188, N-{8-fluoro-2-methylimidazo[1,2-a]pyridin-6-yl}-8-(3-methylpiperazin-1-yl)quinoxaline-5-carboxamide] | < 100 | 1000 to 10000 | 1000 to 10000 | B (B represents 100-1000 nM) |  |  |  |  |  |  |  |  |
| Cc1ccc2c(N3CCC4(CCN4)CC3)ccc(C(=O)Nc3cc(F)c4nc(C)cn4c3)c2n1 [Compound 195, 5-{1,7-diazaspiro[3.5]nonan-7-yl}-N-{8-fluoro-2-methylimidazo[1,2-a]pyridin-6-yl}-2-methylquinoline-8-carboxamide] | < 100 | 100 to 1000 | 100 to 1000 | A (A represents <100 nM) |  |  |  |  |  |  |  |  |
| Cc1cnc2c(C(=O)Nc3cc(F)c4nc(C)cn4c3)ccc(N3CCNCC3)c2n1 [Compound 198] | 100 to 1000 | 100 to 1000 | 100 to 1000 | B (B represents 100-1000 nM) |  |  |  |  |  |  |  |  |
| CN[C@H]1CCN(c2ccc(C(=O)Nc3cc(F)c4nc(C)cn4c3)c3nc(OC)cnc23)C1 [Compound 203, (S)—N-{8-fluoro-2-methylimidazo[1,2-a]pyridin-6-yl}-3-methoxy-8-[3-(methylamino)pyrrolidin-1-yl]quinoxaline-5-carboxamide; trifluoroacetic acid] | 1000 to 10000 | 1000 to 10000 | 1000 to 10000 | C (C represents 1000-9999 nM) |  |  |  |  |  |  |  |  |
| COc1cnc2c(C(=O)Nc3cc(F)c4nc(C)cn4c3)ccc(N3CCC(N(C)C)CC3)c2n1 [Compound 224, 8-[4-(dimethylamino)piperidin-1-yl]-N-{8-fluoro-2-methylimidazo[1,2-a]pyridin-6-yl}-2-methoxyquinoxaline-5-carboxamide] | < 100 | > 10000 | > 10000 | B (B represents 100-1000 nM) |  |  |  |  |  |  |  |  |
| Cc1cn2cc(NC(=O)c3ccc(N4CCN[C@@H](CO)C4)c4nccnc34)cc(F)c2n1 [Compound 361] | 100 to 1000 | 1000 to 10000 | 1000 to 10000 | B (B represents 100-1000 nM) | 1 to 10 | 1 to 10 | 100 to 1000 | < 100 |  |  |  |  |
| COc1ccc2c(N3C[C@H](C)N[C@@H](C)C3)ccc(C(=O)Nc3cc(F)c4nc(C)cn4c3)c2n1 [Compound 385] |  |  |  | B (B represents 100-1000 nM) | 1 to 10 | 1 to 10 | < 100 | < 100 | 1 to 10 | < 100 | < 100 | > 10 |
| COc1ncc2c(N3C[C@H](C)N[C@@H](C)C3)ccc(C(=O)Nc3cn4cc(C)nc4c(OC)n3)c2n1 [Compound 387] |  |  |  | B (B represents 100-1000 nM) | 1 to 10 | 1 to 10 | < 100 | < 100 | 1 to 10 | < 100 | < 100 | 1 to 10 |
